Assay results taken from publication PMC9515952, “Tentative exploration of pharmacodynamic substances: Pharmacological effects, chemical compositions, and multi-components pharmacokinetic characteristics of ESZWD in CHF-HKYd rats” (Frontiers in Cardiovascular Medicine, 2022).

What was measured:
[1] = Stability of four compounds in rat serum (UPLC-MS/MS method validation); conditions: n = 5; for Stability, Room temperature, Mean ± SD: 4 h at room temperature (25°C); for Stability, Automatic sampler, Mean ± SD: 8 h in the automatic sampler; for Stability, Long-term freeze, Mean ± SD: 7 d at −80°C; for Stability, Multigelation, Mean ± SD: three freeze and thaw cycles
Protocol: The stability of all probe drugs was evaluated by LQC and HQC samples under different experimental conditions, including short-term stability [4 h at room temperature (25°C), 8 h in the automatic sampler, and three freeze and thaw cycles, respectively] and long-term stability (7 d at −80°C).

[2] = Pharmacokinetics of four components of ESZWD in CHF-HKYd rat serum by UPLC-MS/MS; type: in vivo; conditions: CHF-HKYd rat serum after oral administration of ESZWD, mean ± SD, n = 6
Protocol: (§1) All rats were randomly divided into control group, model group, ESZWD low-dose (3.96 g/kg), medium-dose (7.92 g/kg), high-dose (15.84 g/kg) groups, and positive control group (benazepril, 0.5 mg/kg), with six rats in each group. The CHF-HKYd was established after 1 week of feeding. ESZWD and benazepril were administered by gavage separately for 4 weeks after successful modeling, except for the control group. Blood was collected for 5, 10, 20, 30, 45 min, 1, 2, 4, 6, 8, 12, and 24 h, standing for 2 h and centrifuged at 4°C, 3,500 rpm for 10 min, the supernatant was retained. The state of rats was observed and the urine volume at 24 h was measured. The structure and function of rat heart were evaluated by doppler ultrasonography. Serum biomarkers including myocardial injury indicators NT-proBNP, angiotensinII (AngII), aldosterone (ALD), reactive oxygen species (ROS), superoxide dismutase (SOD), malondialdehyde (MDA), and tumor necrosis factor α (TNF-α) and interleukin 6 (IL-6) were detected by ELISA.
Chromatographic analysis was performed using ACQUITY UPLC BEH C18 column (2.1 × 50 mm, […]), the mobile phase was acetonitrile (A) 0.1% formic acid water (B), the flow rate was set as 0.2 mL·min^−1, the column temperature was 35°C, the injection volume was 2 μL, and the gradient conditions were as follows: 0–8 min: 6–11%A, 8–23 min: 11–19%A, 23–45 min: 19–38%A, 45–55 min: 38–47%A, 55–55.1 min: 47–52%A, 55.1–65 min: 52–90%A, 65–66 min: 90–6%A of UPLC-Q-TOF/MS analysis and 0–3 min: 8–10%A, 3–3.5 min: 10–70% A, 3.5–5: 70–80%A, 5–5.1 min: 80–8% A, 5.1–6 min: 8% A of UPLC-MS/MS.
Mass spectrometric detection of UPLC-MS/MS analysis was carried out on electrospray ionization (ESI) ion source, multiple reaction monitoring (MRM) mode, ion spray voltage of 5,500 V, the curtain gas and collision gas were 40 and 9 kPa, respectively, declustering potential (DP) and collision voltage (CE) are shown in Table 1.

[3] = system: MDA; assay: Serum malondialdehyde (MDA) by ELISA in CHF-HKYd rats; type: in vivo, rat; conditions: benazepril 0.5 mg/kg, gavage 4 weeks
Protocol: (§2) SPF SD male rats were anesthetized by intraperitoneal injection of 25% urethane (1,000 mg/kg). Cut off the skin tissue for about 1 cm, blunt away from bilateral neck muscles, separate and excise the bilateral thyroid glands, and the parathyroid glands were retained. The mixture of noradrenaline and normal saline (1:4,000) was used to stop intraoperative bleeding during the operation, the muscle and skin were sutured and 0.1% calcium gluconate solution was given postoperatively. On the 10th day after thyroidectomy, the rats were intraperitoneally injected with 0.02% doxorubicin hydrochloride (1 mL/100 g), twice a week for 3 weeks.
as §1, with “ESZWD and benazepril were administered by gavage separately for 4 weeks after successful modeling, except for the control group. Blood was collected for 5, 10, 20, 30, 45 min, 1, 2, 4, 6, 8, 12, and 24 h, standing for 2 h and centrifuged at 4°C, 3,500 rpm for 10 min, the supernatant was retained.” left out

[4] = system: AngII; assay: Serum angiotensinII (AngII) by ELISA in CHF-HKYd rats; type: in vivo, rat; conditions: benazepril 0.5 mg/kg, gavage 4 weeks
Protocol: as §2
as §1, with “ESZWD and benazepril were administered by gavage separately for 4 weeks after successful modeling, except for the control group. Blood was collected for 5, 10, 20, 30, 45 min, 1, 2, 4, 6, 8, 12, and 24 h, standing for 2 h and centrifuged at 4°C, 3,500 rpm for 10 min, the supernatant was retained.” left out

[5] = system: ROS; assay: Serum reactive oxygen species (ROS) by ELISA in CHF-HKYd rats; type: in vivo, rat; conditions: benazepril 0.5 mg/kg, gavage 4 weeks
Protocol: as §2
as §1, with “ESZWD and benazepril were administered by gavage separately for 4 weeks after successful modeling, except for the control group. Blood was collected for 5, 10, 20, 30, 45 min, 1, 2, 4, 6, 8, 12, and 24 h, standing for 2 h and centrifuged at 4°C, 3,500 rpm for 10 min, the supernatant was retained.” left out

[6] = system: TNF-α; assay: Serum TNF-α by ELISA in CHF-HKYd rats; type: in vivo, rat; conditions: benazepril 0.5 mg/kg, gavage 4 weeks
Protocol: as §2
as §1, with “ESZWD and benazepril were administered by gavage separately for 4 weeks after successful modeling, except for the control group. Blood was collected for 5, 10, 20, 30, 45 min, 1, 2, 4, 6, 8, 12, and 24 h, standing for 2 h and centrifuged at 4°C, 3,500 rpm for 10 min, the supernatant was retained.” left out

[7] = system: NT-proBNP; assay: Serum NT-proBNP by ELISA in CHF-HKYd rats; type: in vivo, rat; conditions: benazepril 0.5 mg/kg, gavage 4 weeks
Protocol: as §2
The general state of rats was observed: the basic criteria for the symptoms of HKYd were dark purple coating on the tongue, asthma, edema, fear of cold, emaciation, loose stools, sleepiness, hypotrichosis, etc. The urine volume of rats was measured: 1 week after the last injection, 24 h urine volume of rats in the normal and model group were collected in the metabolic cage, and the urine samples were frozen at −80°C. Evaluation of cardiac function in rats by Doppler echocardiography: After urine collection, the rats were anesthetized and fixed in the supine position. The precardiac area of the rats was depilated and the coupling agent was applied, a frequency of 12 MHz. […] The contents of serum NT-proBNP, T3, and T4 were detected by ELISA. […]

[8] = system: CHF-HKYd rats; assay: Doppler echocardiography of cardiac function in CHF-HKYd rats; type: in vivo, rat; conditions: benazepril 0.5 mg/kg by gavage for 4 weeks (positive control)
Protocol: as §2
The general state of rats was observed: the basic criteria for the symptoms of HKYd were dark purple coating on the tongue, asthma, edema, fear of cold, emaciation, loose stools, sleepiness, hypotrichosis, etc. The urine volume of rats was measured: 1 week after the last injection, 24 h urine volume of rats in the normal and model group were collected in the metabolic cage, and the urine samples were frozen at −80°C. Evaluation of cardiac function in rats by Doppler echocardiography: After urine collection, the rats were anesthetized and fixed in the supine position. The precardiac area of the rats was depilated and the coupling agent was applied, a frequency of 12 MHz. M-mode ultrasound and pulsed Doppler ultrasound were used to detect diastolic interventricular septum (IVSD), left ventricular internal diastolic diameter (LVIDd), left ventricular posterior wall diastolic diameter (LVPWd), systolic interventricular septum (IVSs) and left ventricular internal systolic diameter (LVIDs), left ventricular posterior wall systolic diameter (LVPWs), stroke volume (SV), left ventricular ejection fraction (LVEF), left ventricular short-axis systolic fraction (FS), and the ratio of peak flow velocity between early and late mitral valve diastole (E/A) through the left ventricular macropinacoid of left sternal bone and four-chamber view. Neuroendocrine factor detection: After the echocardiography, 1 mL of blood was taken from the canthus of rats in each group, blood was placed in the water at 37°C for 1.5 h, centrifuged to obtain serum (3,000 rpm, 10 min), frozen at −80°C. The contents of serum NT-proBNP, T3, and T4 were detected by ELISA.
as §1

[9] = system: ALD; assay: Serum aldosterone (ALD) by ELISA in CHF-HKYd rats; type: in vivo, rat; conditions: benazepril 0.5 mg/kg, gavage 4 weeks
Protocol: as §2
as §1, with “ESZWD and benazepril were administered by gavage separately for 4 weeks after successful modeling, except for the control group. Blood was collected for 5, 10, 20, 30, 45 min, 1, 2, 4, 6, 8, 12, and 24 h, standing for 2 h and centrifuged at 4°C, 3,500 rpm for 10 min, the supernatant was retained.” left out

[10] = system: IL-6; assay: Serum IL-6 by ELISA in CHF-HKYd rats; type: in vivo, rat; conditions: benazepril 0.5 mg/kg, gavage 4 weeks
Protocol: as §2
as §1, with “ESZWD and benazepril were administered by gavage separately for 4 weeks after successful modeling, except for the control group. Blood was collected for 5, 10, 20, 30, 45 min, 1, 2, 4, 6, 8, 12, and 24 h, standing for 2 h and centrifuged at 4°C, 3,500 rpm for 10 min, the supernatant was retained.” left out

[11] = added 20 ng/mL (salsolinol) or 1 ng/mL (others)
[12] = added 100 ng/mL (salsolinol) or 10 ng/mL (others)
[13] = added 750 ng/mL (salsolinol) or 150 ng/mL (others)

CCN1C[C@]2(COC)[C@H](O)C[C@H](OC)[C@@]34[C@@H]5C[C@@]6(O)[C@H](OC(=O)c7ccccc7)[C@@H]5[C@@](OC(C)=O)([C@@H]([C@H](OC)[C@H]23)[C@@H]14)[C@@H](O)[C@@H]6OC [Aconitine]
Stability, Room temperature, Mean ± SD [1, 11]: 1.049 ± 0.05 ng/mL | Stability, Room temperature, Mean ± SD [1, 12]: 9.558 ± 0.29 ng/mL | Stability, Room temperature, Mean ± SD [1, 13]: 163.7 ± 5.25 ng/mL | Stability, Automatic sampler, Mean ± SD [1, 11]: 1.087 ± 0.12 ng/mL | Stability, Automatic sampler, Mean ± SD [1, 12]: 9.053 ± 0.24 ng/mL | Stability, Automatic sampler, Mean ± SD [1, 13]: 162.6 ± 9.72 ng/mL | Stability, Long-term freeze, Mean ± SD [1, 11]: 1.082 ± 0.05 ng/mL | Stability, Long-term freeze, Mean ± SD [1, 12]: 10.05 ± 0.97 ng/mL | Stability, Long-term freeze, Mean ± SD [1, 13]: 157.4 ± 3.86 ng/mL | Stability, Multigelation, Mean ± SD [1, 11]: 1.125 ± 0.11 ng/mL | Stability, Multigelation, Mean ± SD [1, 12]: 9.042 ± 0.48 ng/mL | Stability, Multigelation, Mean ± SD [1, 13]: 156.9 ± 8.39 ng/mL | V/F [2]: 2679 ± 1574 L/kg | AUC(0-inf) ([2]; Sprague-Dawley (SD), in vivo): 50.1 ± 16 ng·h/mL | AUC(0-t) ([2]; Sprague-Dawley (SD), in vivo): 48.9 ± 16.4 ng·h/mL | half-life ([2]; Sprague-Dawley (SD), in vivo): 4.24 ± 1.83 h | CL/F ([2]; Sprague-Dawley (SD), in vivo, read-out: CL/F (converted)): 425 L/h/kg | Cmax ([2]; Sprague-Dawley (SD), in vivo, read-out: Cmax): 8.96 ± 2.22 ng/mL | Tmax ([2]; Sprague-Dawley (SD), in vivo, read-out: Tmax): 0.75 h | half-life ([2]; Sprague-Dawley, in vivo): ~4 h

CCOC(=O)[C@H](CCc1ccccc1)N[C@H]1CCc2ccccc2N(CC(=O)O)C1=O [Benazepril, benazepril]
serum MDA level vs model group [3]: significantly reduce | serum AngII level vs model group [4]: significantly reduced | serum ROS level vs model group [5]: significantly reduce | serum TNF-α level vs model group [6]: significantly reduced | serum NT-proBNP level vs model group [7]: significantly reduced | E/A [8]: 1.794 ± 0.28 | FS [8]: 60.31 ± 8.10 % | IVSd [8]: 1.800 ± 0.62 mm | IVSs [8]: 3.425 ± 0.88 mm | LVEF [8]: 92.30 ± 4.09 % | LVIDd [8]: 5.950 ± 1.28 mm | LVIDs [8]: 2.350 ± 0.72 mm | LVPWd [8]: 1.900 ± 0.67 mm | LVPWs [8]: 3.525 ± 0.79 mm | SV [8]: 0.4950 ± 0.25 mL | serum ALD level vs model group [9]: significantly reduced | serum IL-6 level vs model group [10]: significantly reduced
